Experimental data from ChEMBL document CHEMBL3352740, “Pyrrolopyrimidine Analogues as MKNK Inhibitors” (ACS Med Chem Lett, 2015).

Molecular target: MAP kinase-interacting serine/threonine-protein kinase 1 (Homo sapiens, UniProt Q9BUB5)
Assay: Inhibition of human full-length MKNK1 using biotin-Ahx-IKKRKLTRRKSLKG substrate by TR-FRET-based high ATP assay

MAP kinase-interacting serine/threonine-protein kinase 1, sequence (Q9BUB5 whole entry): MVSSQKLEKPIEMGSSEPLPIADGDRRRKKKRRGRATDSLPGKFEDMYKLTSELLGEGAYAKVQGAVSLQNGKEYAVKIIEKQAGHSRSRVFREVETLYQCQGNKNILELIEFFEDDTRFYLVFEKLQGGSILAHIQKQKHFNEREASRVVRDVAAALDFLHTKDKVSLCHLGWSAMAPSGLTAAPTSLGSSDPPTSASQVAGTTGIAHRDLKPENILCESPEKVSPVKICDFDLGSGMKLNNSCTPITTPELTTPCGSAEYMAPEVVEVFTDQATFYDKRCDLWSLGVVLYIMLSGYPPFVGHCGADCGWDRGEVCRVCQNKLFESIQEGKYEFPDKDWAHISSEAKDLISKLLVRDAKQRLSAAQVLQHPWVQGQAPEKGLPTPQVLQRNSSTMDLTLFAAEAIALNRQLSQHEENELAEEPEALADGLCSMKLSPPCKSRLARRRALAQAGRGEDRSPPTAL

Row | Compound | IC50 [nM]
1 | COc1cc2[nH]ncc2cc1Nc1ncnc2[nH]c3c(c12)CC(C(=O)NCc1ccccc1)CC3 (stereo unspecified) | 1
2 | CCNC(=O)C1CCc2[nH]c3ncnc(Nc4cc5cn[nH]c5cc4OC)c3c2C1 (stereo unspecified) | 6
3 | CC(C)Oc1cc2[nH]ncc2cc1Nc1ncnc2[nH]c3c(c12)CCCC3 | 5
4 | COc1cc(Cl)c(Cl)cc1Nc1ncnc2[nH]c3c(c12)CC(C(=O)NC1CC1)CC3 (stereo unspecified) | 6
5 | O=C1OCCOc2cc(F)ccc2Nc2ncnc3[nH]c4c(c23)CC1CC4 (stereo unspecified) | 3540
6 | CC(C)Oc1cc2[nH]ncc2cc1Nc1ncnc2[nH]c3c(c12)CC(C(=O)NCCCS(C)(=O)=O)CC3 (stereo unspecified) | 1
